Structures can show the parent of a compound that is named as a salt.

The target in one assay is T1, Rat brain protein farnesyltransferase (Rattus norvegicus, UniProt Q02293+Q04631).
T1 construct: Rat brain protein farnesyltransferase activity is measured; from tissue; host or cells: rat brain
T1 sequence (Q02293 whole entry, one chain of several): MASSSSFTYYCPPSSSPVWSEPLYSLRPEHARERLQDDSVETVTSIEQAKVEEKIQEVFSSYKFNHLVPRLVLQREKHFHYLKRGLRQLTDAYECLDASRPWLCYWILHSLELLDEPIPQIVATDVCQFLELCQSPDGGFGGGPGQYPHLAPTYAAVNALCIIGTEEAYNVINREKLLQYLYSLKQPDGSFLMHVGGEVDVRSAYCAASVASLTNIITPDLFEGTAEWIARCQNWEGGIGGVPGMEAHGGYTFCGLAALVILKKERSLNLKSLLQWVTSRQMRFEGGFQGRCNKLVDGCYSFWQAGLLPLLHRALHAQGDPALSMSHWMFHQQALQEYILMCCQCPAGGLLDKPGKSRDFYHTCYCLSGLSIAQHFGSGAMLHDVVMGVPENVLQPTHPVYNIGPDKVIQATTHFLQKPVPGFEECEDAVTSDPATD
In words: % inhibition of farnesylation, scintillation proximity assay with biotin-K Ras B fragment. The format is biochemical. As to conditions: Table 2; 1 × 10^-6 M. From the text:
The ability of the compounds of the invention to inhibit protein farnesyltransferase or protein geranylgeranyltransferase can be measured according to the method of Moores, et al., J. Biol. Chem. 266: 14603 (1991) or the method of Vogt, et al., J. Biol. Chem. 270:660-664 (1995). In addition, procedures for determination of the inhibition of farnesylation of the oncogene protein Ras are described by Goldstein, et al., J. Biol. Chem., 266:15575-15578 (1991) and by Singh in U.S. Pat. No. 5,245,061.
In addition, in vitro inhibition of protein farnesyltransferase may be measured by the following procedure. Rat brain protein farnesyltransferase activity is measured using an Amersham Life Science commercial scintillation proximity assay kit and substituting a biotin-K Ras B fragment (biotin-[…]CO2 H), 0.1 mM final concentration, for the biotin-lamin substrate provided by Amersham. The enzyme is purified according to Reiss, Y., et al., Cell, 62: 81-88 (1990), utilizing steps one through three.
The % inhibition of protein farnesyltransferase was determined for representative compounds of the invention.
Background: In a scintillation proximity assay essentially only radioactivity close to the scintillant gives light.
`CSCCC(NC(=O)c1ccc(NC(=O)Cc2cscn2)cc1-c1ccccc1)C(=O)O` (stereo not shown) [Example 162]: the “% inhibition at 1 × 10^-6 M” value was 12%.
The same measure, in the same setting: as for `CSCC[C@H](NC(=O)c1ccc(NC(=O)Cc2nccs2)cc1-c1ccccc1)C(=O)O` [Example 163], the figure is 18%.
Same read-out and setting: with `COC(=O)[C@H](CCSC)NC(=O)c1ccc(NC(=O)[C@@H]2CSCN2)cc1-c1ccccc1.Cl` [Example 164] the figure was 92%; with `CSCC[C@H](NC(=O)c1ccc(NC(=O)[C@@H]2CSCN2)cc1-c1ccccc1)C(=O)O` [Example 165], 74%; with `CSCC[C@H](NC(=O)c1ccc(NC[C@@H]2CSCN2)cc1-c1ccccc1)C(=O)O.Cl` [Example 166], 97%.
Regarding `CSCC[C@H](NC(=O)c1ccc(NC(=O)C2CCC(=O)N2)cc1-c1ccccc1)C(=O)O` (stereo partly shown) [Example 202], the “% inhibition at 1 × 10^-6 M” value worked out at 31%.
Consider `CSCCC(NC(=O)c1ccc(NC(=O)c2cncnc2)cc1-c1ccccc1)C(=O)O` (stereo not shown) [Example 219], for which the “% inhibition at 1 × 10^-6 M” value is recorded as 56%.
In the case of `CSCC[C@H](NC(=O)c1ccc(N2CC(=O)NNC2=O)cc1-c1ccccc1)C(=O)O` [Example 224], the “% inhibition at 1 × 10^-6 M” value is 41%.
Turning to `CSCCC(NC(=O)c1ccc(NC(=O)C2CCCNC2)cc1-c1ccccc1)C(=O)O` (stereo not shown) [Example 231], the “% inhibition at 1 × 10^-6 M” value was 50%.
On to `CSCC[C@H](NC(=O)c1ccc(NC(=O)C2=C(C(F)(F)F)C=CNC2)cc1-c1ccccc1)C(=O)O` [Example 283], for which the “% inhibition at 1 × 10^-6 M” value was 98%.
On the same count and under the same terms, as for `CSCC[C@H](NC(=O)c1ccc(NCC2CNCCN2)cc1-c1ccccc1)C(=O)O` (stereo partly shown) [Example 286], the figure is 84%.
The same measure, in the same setting: as for `CCCCON(CCC1CCCCC1)Cc1ccc(C(=O)N[C@@H](CCS(C)(=O)=O)C(=O)O)c(-c2ccccc2C)c1` [Example 298], the figure is 43%.
Consider `CCCCN(C)N(CCC1CCCCC1)Cc1ccc(C(=O)N[C@@H](CCS(C)(=O)=O)C(=O)O)c(-c2ccccc2C)c1` [Example 300], for which the “% inhibition at 1 × 10^-6 M” value is 22%.
For the compound `CSCC[C@H](NC(=O)c1ccc(CN(C)C(CC2CCCCC2)C(=O)N2CCCCC2)cc1-c1ccccc1C)C(=O)O` (stereo partly shown) [Example 301], the “% inhibition at 1 × 10^-6 M” value turned out to be 98%.
Turning to `CSCC[C@H](NC(=O)c1ccc(CNCc2ccco2)cc1-c1ccccc1)C(=O)[O-].[Li+]` [Example 302], the “% inhibition at 1 × 10^-6 M” value was found to be 31%.
`CSCC[C@H](NC(=O)c1ccc(CNC(C)(C)Cc2ccccc2)cc1-c1ccccc1C)C(=O)O` [Example 307]: the “% inhibition at 1 × 10^-6 M” value came out at 82%.
`CSCC[C@H](NC(=O)c1ccc(CNC(C)(C)CC2CCCCC2)cc1-c1ccccc1C)C(=O)O` [Example 308]: the “% inhibition at 1 × 10^-6 M” value turned out to be 62%.
Consider `CSCC[C@H](NC(=O)c1ccc(CN(C)C(C)(C)Cc2ccccc2)cc1-c1ccccc1C)C(=O)O` [Example 309], for which the “% inhibition at 1 × 10^-6 M” value is reported as 98%.
On the same count and under the same terms, with `Cc1ccccc1-c1cc(CNC(C)(C)Cc2ccccc2)ccc1C(=O)N[C@@H](CCS(C)(=O)=O)C(=O)O` [Example 311] the figure was 97%; with `Cc1ccccc1-c1cc(CN(C)C(C)(C)Cc2ccccc2)ccc1C(=O)N[C@@H](CCS(C)(=O)=O)C(=O)O` [Example 313], 94%; with `Cc1ccccc1-c1cc(CN(C)C(C)(C)CC2CCCCC2)ccc1C(=O)N[C@@H](CCS(C)(=O)=O)C(=O)O` [Example 314], 97%.
On the same count and under the same terms, as for `CSCC[C@H](NC(=O)c1ccc(CN(C2CC2)C(C)(C)Cc2ccccc2)cc1-c1ccccc1C)C(=O)O` [Example 315], the figure is 93%; as for `CSCC[C@H](NC(=O)c1ccc(CN(C2CC2)C(C)(C)CC2CCCCC2)cc1-c1ccccc1C)C(=O)O` [Example 316], 63%; as for `CSCC[C@H](NC(=O)c1ccc(CN(C(C)C)C(C)(C)Cc2ccccc2)cc1-c1ccccc1C)C(=O)O` [Example 317], 54%.
As for `CSCC[C@H](NC(=O)c1ccc(CN(C(C)C)C(C)(C)CC2CCCCC2)cc1-c1ccccc1C)C(=O)O` [Example 318], the “% inhibition at 1 × 10^-6 M” value was 98%.
On the same count and under the same terms, with `Cc1ccccc1-c1cc(CN(C2CC2)C(C)(C)Cc2ccccc2)ccc1C(=O)N[C@@H](CCS(C)(=O)=O)C(=O)O` [Example 319] the figure was 98%.
On the same count and under the same terms, as for `Cc1ccccc1-c1cc(CN(C2CC2)C(C)(C)CC2CCCCC2)ccc1C(=O)N[C@@H](CCS(C)(=O)=O)C(=O)O` [Example 320], the figure is 93%; as for `CSCC[C@H](NC(=O)c1ccc(CN(C2CC2)C2(CC3CCCCC3)CC2)cc1-c1ccccc1C)C(=O)O` [Example 324], 98%; as for `CSCC[C@H](NC(=O)c1ccc(CN(C(C)C)C2(Cc3ccccc3)CC2)cc1-c1ccccc1C)C(=O)O` [Example 325], 99%.
For `CSCC[C@H](NC(=O)c1ccc(CN(C(C)C)C2(CC3CCCCC3)CC2)cc1-c1ccccc1C)C(=O)O` [Example 326], the “% inhibition at 1 × 10^-6 M” value was 91%.
Same read-out and setting: with `CSCC[C@H](NC(=O)c1ccc(CN(C2CC2)C2(Cc3ccccc3)CCC2)cc1-c1ccccc1C)C(=O)O` [Example 329] the figure was 98%.
As to `CSCC[C@H](NC(=O)c1ccc(CN(C2CC2)C2(CC3CCCCC3)CCC2)cc1-c1ccccc1C)C(=O)O` [Example 330], the “% inhibition at 1 × 10^-6 M” value is 98%.
Same read-out and setting: as for `CSCC[C@H](NC(=O)c1ccc(CN(C(C)C)C2(Cc3ccccc3)CCC2)cc1-c1ccccc1C)C(=O)O` [Example 331], the figure is 98%; as for `CSCC[C@H](NC(=O)c1ccc(CN(C(C)C)C2(CC3CCCCC3)CCC2)cc1-c1ccccc1C)C(=O)O` [Example 332], 26%.
Turning to `Cc1ccccc1-c1cc(CN(C2CC2)C2(Cc3ccccc3)CCC2)ccc1C(=O)N[C@@H](CCS(C)(=O)=O)C(=O)O` [Example 333], the “% inhibition at 1 × 10^-6 M” value is recorded as 99%.
The same measure, in the same setting: as for `Cc1ccccc1-c1cc(CN(C2CC2)C2(CC3CCCCC3)CCC2)ccc1C(=O)N[C@@H](CCS(C)(=O)=O)C(=O)O` [Example 334], the figure is 93%; as for `CSCC[C@H](NC(=O)c1ccc(CN(C(C)C)C2(Cc3ccccc3)CCCC2)cc1-c1ccccc1C)C(=O)O` [Example 343], 72%.
On the same count and under the same terms, as for `CSCC[C@H](NC(=O)c1ccc(CN(C(C)C)C2(CC3CCCCC3)CCCC2)cc1-c1ccccc1C)C(=O)O` [Example 344], the figure is 95%; as for `Cc1ccccc1-c1cc(CN(C2CC2)C2(Cc3ccccc3)CCCC2)ccc1C(=O)N[C@@H](CCS(C)(=O)=O)C(=O)O` [Example 345], 91%.
Still for that read-out and setting: as for `Cc1ccccc1-c1cc(CN(C2CC2)C2(CC3CCCCC3)CCCC2)ccc1C(=O)N[C@@H](CCS(C)(=O)=O)C(=O)O` [Example 346], the figure is 98%.

The assay is the same for the next values; noted with them: read-out: % inhibition at 1 × 10^-6 M.
Regarding `CSCC[C@H](NC(=O)c1ccc(COCc2cccs2)cc1-c1ccccc1C)C(=O)O` [Example 273, [4-(2-thienylmethoxymethyl)-2-(2-methylphenyl)benzoyl]methionine Lithium salt], the inhibition at 1 µM turned out to be 96%.
Take `CSCC[C@H](NC(=O)c1ccc(COCc2ccsc2)cc1-c1ccccc1C)C(=O)O` [Example 274, [4-(3-thienylmethoxymethyl)-2-(2-methylphenyl)benzoyl]methionine Lithium salt]: the inhibition at 1 µM came out at 94%.
The same measure, in the same setting: with `CSCC[C@H](NC(=O)c1ccc(COCc2ccc(-c3ccccc3)o2)cc1-c1ccccc1C)C(=O)O` [Example 327, [4-(5-phenylfur-2-ylmethyloxymethyl)-2-(2-methylphenyl)benzoyl]methionine lithium salt] the figure was 97%.

The same assay, now with this note: read-out: % inhibition at 1 × 10^-6 M; Table 2; 1 × 10^-6 M.
In the case of `CSCC[C@H](NC(=O)c1ccc(COCC2CCOC2)cc1-c1ccccc1)C(=O)O` (stereo partly shown) [Example 287, [4-(3-tetrahydrofurylmethyloxymethyl)-2-phenylbenzoyl]methionine], the inhibition at 1 µM worked out at 24%.
Still for that read-out and setting: as for `CSCC[C@H](NC(=O)c1ccc(COCC2CCCO2)cc1-c1ccccc1)C(=O)O` (stereo partly shown) [Example 288, [4-(2-tetrahydrofurylmethyloxymethyl)-2-phenylbenzoyl]methionine], the figure is 22%; as for `CSCC[C@H](NC(=O)c1ccc(COCc2ccco2)cc1-c1ccccc1C)C(=O)O` [Example 299, [4-(2-furylmethyloxymethyl)-2-(2-methylphenyl)benzoyl]methionine], 94%; as for `CSCC[C@H](NC(=O)c1ccc(COc2nc3ccccc3s2)cc1-c1ccccc1C)C(=O)O` [Example 321, [4-(2-benzothiazolyloxymethyl)-2-(2-methylphenyl)benzoyl]methionine], 90%.
Same read-out and setting: with `CSCC[C@H](NC(=O)c1ccc(CSc2nc3ccccc3o2)cc1-c1ccccc1C)C(=O)O` [Example 322, [4-(2-benzoxazolylthiomethyl)-2-(2-methylphenyl)benzoyl]methionine] the figure was 98%; with `CSCC[C@H](NC(=O)c1ccc(CSc2nc3ccccc3s2)cc1-c1ccccc1C)C(=O)O` [Example 323, [4-(2-benzothiazolylthiomethyl)-2-(2-methylphenyl)benzoyl]methionine], 98%.

In general, % inhibition refers to the share of the control response that was lost under treatment. By inhibition is commonly meant the percentage by which the read-out fell short of the control.

These data come from patent US6204293A, “Inhibitors of protein isoprenyl transferases” (University of Pittsburgh, priority 1998, dated 2001).
